In brackets after ≈: the same amount, converted by molar mass. Read-outs that look alike come from different tables or passages of the source.
Experiments:
HSV- I = assay: HSV antiviral (ELISA) assay; assay type: cell-based; details: read-out: IC50 (ug/ml) HSV
How it was run: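 Vero cells in DMEM with 2% FBS treated with compound 30 min before HSV-1 infection (MOI 0.006), then incubated ~24 h at 37°C. Viral replication measured by ELISA against glycoprotein D with β-galactosidase-linked secondary and fluorogenic substrate (ex 365/em 450 nm); IC50 relative to untreated fluorescence.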

VZV strain Ellen = assay: VZV antiviral (ELISA) assay; assay type: cell-based
How it was run: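 HFF cells infected with VZV Ellen at multiplicity below 0.1 overnight, then mixed infected/uninfected cells seeded with compound in DMEM/2% FBS and incubated three days at 37°C, 5% CO2.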

[1] = system: HCMV recombinant mutant virus whose genome contains the prokaryotic beta-glucuronidase gene; assay: microbe, parasite or virus in culture; assay type: cell-based, human cytomegalovirus; details: Human betaherpesvirus 5, Fibroblast
How it was run: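 Human foreskin fibroblasts infected with HCMV recombinant carrying beta-glucuronidase under a viral promoter (e.g. RV145) in presence of compound. At 96 h post-infection, lysates assayed for beta-glucuronidase by colorimetric or fluorogenic substrate as replication readout; IC50 estimated from varying compound amounts.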

[2] = Human alphaherpesvirus 3, HFF, read-out: % inhibition 10 ug/ml VZV
[3] = Human alphaherpesvirus 3, HFF, read-out: IC50 (ug/ml) VZV
[4] = read-out: IC50 ug/ml HCMV, HCMV, human foreskin fibroblasts
[5] = Human alphaherpesvirus 3, read-out: % inhibition 10 ug/ml VZV, 10 ug/ml, VZV strain Ellen, HFF cells, ELISA
[6] = Human alphaherpesvirus 3, VZV strain Ellen, HFF cells, ELISA, read-out: IC50 (ug/ml) VZV

CS(=O)(=O)Nc1ccc(NC(=S)Nc2ccc(NC(=O)c3ccccc3F)cc2)cc1Cl [Example 370, N-{4-[3-(3-Chloro-4-methanesulfonylamino-phenyl)-thioureido]-phenyl}-2-fluoro-benzamide]
IC50 (HSV- I; HSV- I, Vero cells, ELISA): > 10 µg/mL
inhibition at 10 µg/mL (VZV strain Ellen; [2]): 16%
IC50 (VZV strain Ellen; [3]): > 10 µg/mL
IC50 [1, 4]: > 10 µg/mL

CN(C)CCSCC(=O)Nc1ccc(NC(=S)Nc2ccc(NC(=O)c3ccccc3F)cc2)cc1Cl [Example 373, N-[4-(3-{3-Chloro-4-[2-(2-dimethylamino-ethylsulfanyl)-acetylamino]-phenyl}-thioureido)-phenyl]-2-fluoro-benzamide]
IC50 (HSV- I; HSV- I, Vero cells, ELISA): 9 µg/mL (≈ 16.1 µM)
inhibition at 10 µg/mL (VZV strain Ellen; [2]): 4%
IC50 (VZV strain Ellen; [3]): > 10 µg/mL
IC50 [1, 4]: 6 µg/mL (≈ 10.7 µM)

Cc1ccccc1C(=O)Nc1ccc(NC(=S)Nc2ccc(N(C)C3CCN(Cc4ccccc4)C3)c(Cl)c2)cc1 (stereo not drawn) [Example 374, N-[4-(3-{4-[(1-Benzyl-pyrrolidin-3-yl)-methyl-amino]-3-chloro-phenyl}-thioureido)-phenyl]-2-methyl-benzamide]
IC50 (HSV- I; HSV- I, Vero cells, ELISA): 3 µg/mL (≈ 5.14 µM)
inhibition at 10 µg/mL (VZV strain Ellen; [2]): 70%
IC50 (VZV strain Ellen; [3]): 4 µg/mL (≈ 6.85 µM)
IC50 [1, 4]: 3 µg/mL (≈ 5.14 µM)

Cc1ccccc1C(=O)Nc1ccc(NC(=S)Nc2ccc(N(C)C3CCN(C)CC3)c(Cl)c2)cc1 [Example 375, N-[4-(3-{3-Chloro-4-[methyl-(1-methyl-piperidin-4-yl)-amino]-phenyl}-thioureido)-phenyl]-2-methyl-benzamide]
IC50 (HSV- I; HSV- I, Vero cells, ELISA): 5 µg/mL (≈ 9.58 µM)
inhibition at 10 µg/mL (VZV strain Ellen; [2]): 95%
IC50 (VZV strain Ellen; [3]): 7 µg/mL (≈ 13.4 µM)
IC50 [1, 4]: 1.5 µg/mL (≈ 2.87 µM)

O=C(Nc1ccc(NC(=S)Nc2ccc(Cl)c(C(F)(F)F)c2)cc1)c1c(F)cccc1F [Example 380, N-{4-[3-(4-Chloro-3-trifluoromethyl-phenyl)-thioureido]-phenyl}-2,6-difluoro-benzamide]
IC50 (HSV- I; HSV- I, Vero cells, ELISA): > 10 µg/mL
inhibition at 10 µg/mL (VZV strain Ellen; [2]): 50%
IC50 (VZV strain Ellen; [3]): > 10 µg/mL
IC50 [1, 4]: > 10 µg/mL

CCSc1ccc(NC(=S)Nc2ccc(NC(=O)c3ccccc3F)cc2)cc1Cl [Example 386, N-{4-[3-(3-Chloro-4-ethylsulfanyl-phenyl)-thioureido]-phenyl}-2-fluoro-benzamide]
IC50 (HSV- I; HSV- I, Vero cells, ELISA): > 10 µg/mL
inhibition at 10 µg/mL (VZV strain Ellen; [2]): 29%
IC50 (VZV strain Ellen; [3]): > 10 µg/mL
IC50 [1, 4]: 2 µg/mL (≈ 4.35 µM)

CCCCSc1ccc(NC(=S)Nc2ccc(NC(=O)c3ccccc3F)cc2)cc1Cl [Example 387, N-{4-[3-(4-Butylsulfanyl-3-chloro-phenyl)-thioureido]-phenyl}-2-fluoro-benzamide]
IC50 (HSV- I; HSV- I, Vero cells, ELISA): > 10 µg/mL
inhibition at 10 µg/mL (VZV strain Ellen; [2]): 26%
IC50 (VZV strain Ellen; [3]): > 10 µg/mL
IC50 [1, 4]: > 10 µg/mL

C[S+]([O-])c1ccc(NC(=S)Nc2ccc(NC(=O)c3c(F)cccc3F)cc2)cc1Cl (stereo not drawn) [Example 392, N-{4-[3-(3-Chloro-4-methanesulfinyl-phenyl)-thioureido]-phenyl}-2,6-difluoro-benzamide]
IC50 (HSV- I; HSV- I, Vero cells, ELISA): > 10 µg/mL
inhibition at 10 µg/mL (VZV strain Ellen; [2]): 92%
IC50 (VZV strain Ellen; [3]): 2 µg/mL (≈ 4.17 µM)
IC50 [1, 4]: 0.5 µg/mL (≈ 1.04 µM)

CS(=O)(=O)c1ccc(NC(=S)Nc2ccc(NC(=O)c3c(F)cccc3F)cc2)cc1Cl [Example 393, N-{4-[3-(3-Chloro-4-methanesulfonyl-phenyl)-thioureido]-phenyl}-2,6-difluoro-benzamide]
IC50 (HSV- I; HSV- I, Vero cells, ELISA): > 10 µg/mL
inhibition at 10 µg/mL (VZV strain Ellen; [2]): 62%
IC50 (VZV strain Ellen; [3]): > 10 µg/mL
IC50 [1, 4]: 0.5 µg/mL (≈ 1.01 µM)

Cc1ccc(NC(=S)Nc2ccc(NC(=O)c3ccccc3F)c(C)c2)cc1Cl [Example 395, N-{4-[3-(3-Chloro-4-methyl-phenyl)-thioureido]-2-methyl-phenyl}-2-fluoro-benzamide]
IC50 (HSV- I; HSV- I, Vero cells, ELISA): 0.2 µg/mL (≈ 0.467 µM)
inhibition at 10 µg/mL (VZV strain Ellen; [2]): 64%
IC50 (VZV strain Ellen; [3]): > 10 µg/mL
IC50 [1, 4]: 3 µg/mL (≈ 7.01 µM)

CC(=O)Nc1ccc(NC(=S)Nc2ccc(NC(=O)c3ccccc3F)cc2)cc1Cl [Example 397, N-{4-[3-(4-Acetylamino-3-chloro-phenyl)-thioureido]-phenyl}-2-fluoro-benzamide]
IC50 (HSV- I; HSV- I, Vero cells, ELISA): 5 µg/mL (≈ 10.9 µM)
inhibition at 10 µg/mL (VZV strain Ellen; [2]): 35%
IC50 (VZV strain Ellen; [3]): > 10 µg/mL
IC50 [1, 4]: 10 µg/mL (≈ 21.9 µM)

CCOC(=O)Nc1ccc(NC(=S)Nc2ccc(NC(=O)c3ccccc3F)cc2)cc1Cl [Example 399, (2-Chloro-4-{3-[4-(2-fluoro-benzoylamino)-phenyl]-thioureido}-phenyl)-carbamic acid ethyl ester]
IC50 (HSV- I; Vero): > 10 µg/mL
inhibition at 10 µg/mL (VZV strain Ellen; [2]): 59%
IC50 (VZV strain Ellen; Human alphaherpesvirus 3, HFF, read-out: IC50 (ug/ml) VZV, VZV strain Ellen, HFF cells, ELISA): > 10 µg/mL
IC50 [1, 4]: 1.5 µg/mL (≈ 3.08 µM)

Nc1ccc(NC(=S)Nc2ccc(NC(=O)c3ccccc3F)cc2)cc1Cl [Example 404, N-{4-[3-(4-Amino-3-chloro-phenyl)-thioureido]-phenyl}-2-fluoro-benzamide]
IC50 (HSV- I; HSV- I, Vero cells, ELISA): 0.4 µg/mL (≈ 0.964 µM)
inhibition at 10 µg/mL (VZV strain Ellen; [2]): 15%
IC50 (VZV strain Ellen; [3]): > 10 µg/mL
IC50 [1, 4]: 8 µg/mL (≈ 19.3 µM)

O=C(CN1CCSCC1)Nc1ccc(NC(=S)Nc2ccc(NC(=O)c3ccccc3F)cc2)cc1Cl [Example 407, N-(4-{3-[3-Chloro-4-(2-thiomorpholin-4-yl-acetylamino)-phenyl]-thioureido}-phenyl)-2-fluoro-benzamide]
IC50 (HSV- I; HSV- I, Vero cells, ELISA): 4 µg/mL (≈ 7.17 µM)
inhibition at 10 µg/mL (VZV strain Ellen; [2]): 87%
IC50 (VZV strain Ellen; [3]): 0.7 µg/mL (≈ 1.25 µM)
IC50 [1, 4]: > 10 µg/mL

CCN(CC)CC(=O)Nc1ccc(NC(=S)Nc2ccc(NC(=O)c3ccccc3F)cc2)cc1Cl [Example 414, N-(4-{3-[3-Chloro-4-(2-diethylamino-acetylamino)-phenyl]-thioureido}-phenyl)-2-fluoro-benzamide]
IC50 (HSV- I; HSV- I, Vero cells, ELISA): 6 µg/mL (≈ 11.4 µM)
inhibition at 10 µg/mL (VZV strain Ellen; [2]): 70%
IC50 (VZV strain Ellen; [3]): > 15 µg/mL
IC50 [1, 4]: > 10 µg/mL

O=C(CN1CCCC1)Nc1ccc(NC(=S)Nc2ccc(NC(=O)c3ccccc3F)cc2)cc1Cl [Example 417, N-(4-{3-[3-Chloro-4-(2-pyrrolidin-1-yl-acetylamino)-phenyl]-thioureido}-phenyl)-2-fluoro-benzamide]
IC50 (HSV- I; HSV- I, Vero cells, ELISA): 6 µg/mL (≈ 11.4 µM)
inhibition at 10 µg/mL (VZV strain Ellen; [2]): 15%
IC50 (VZV strain Ellen; [3]): > 10 µg/mL
IC50 [1, 4]: > 10 µg/mL

O=C(CN1CCCCCC1)Nc1ccc(NC(=S)Nc2ccc(NC(=O)c3ccccc3F)cc2)cc1Cl [Example 423, N-(4-{3-[4-(2-Azepan-1-yl-acetylamino)-3-chloro-phenyl]-thioureido}-phenyl)-2-fluoro-benzamide]
IC50 (HSV- I; HSV- I, Vero cells, ELISA): 4 µg/mL (≈ 7.22 µM)
inhibition at 10 µg/mL (VZV strain Ellen; [2]): 87%
IC50 (VZV strain Ellen; [3]): 0.9 µg/mL (≈ 1.62 µM)
IC50 [1, 4]: 1 µg/mL (≈ 1.8 µM)

CC1CCCCN1CC(=O)Nc1ccc(NC(=S)Nc2ccc(NC(=O)c3ccccc3F)cc2)cc1Cl (stereo not drawn) [Example 425, N-[4-(3-{3-Chloro-4-[2-(2-methyl-piperidin-1-yl)-acetylamino]-phenyl}-thioureido)-phenyl]-2-fluoro-benzamide]
IC50 (HSV- I; Vero): 3 µg/mL (≈ 5.41 µM)
inhibition at 10 µg/mL (VZV strain Ellen; [2]): 103%
IC50 (VZV strain Ellen; [3]): > 7.5 µg/mL
IC50 [1, 4]: 0.5 µg/mL (≈ 0.902 µM)

Cc1cccc(NC(=S)Nc2ccc(NC(=O)c3ccccc3F)cc2)c1 [Example 432, 2-Fluoro-N-[4-(3-m-tolyl-thioureido)-phenyl]-benzamide]
IC50 (HSV- I; HSV- I, Vero cells, ELISA): 1.6 µg/mL (≈ 4.22 µM)
inhibition at 10 µg/mL (VZV strain Ellen; [5]): 0%
IC50 (VZV strain Ellen; [6]): > 10 µg/mL
IC50 ([1]; read-out: IC50 ug/ml HCMV): 10 µg/mL (≈ 26.4 µM)

O=C(Nc1ccc(NC(=S)Nc2cccc(C(F)(F)F)c2)cc1)c1ccccc1F [Example 433, 2-Fluoro-N-{4-[3-(3-trifluoromethyl-phenyl)-thioureido]-phenyl}-benzamide]
IC50 (HSV- I; HSV- I, Vero cells, ELISA): > 10 µg/mL
inhibition at 10 µg/mL (VZV strain Ellen; [5]): 0%
IC50 (VZV strain Ellen; [6]): > 10 µg/mL
IC50 ([1]; read-out: IC50 ug/ml HCMV): > 10 µg/mL

Nc1cccc(NC(=S)Nc2ccc(NC(=O)c3ccccc3F)cc2)c1 [Example 434, N-{4-[3-(3-Amino-phenyl)-thioureido]-phenyl}-2-fluoro-benzamide]
IC50 (HSV- I; HSV- I, Vero cells, ELISA): 10 µg/mL (≈ 26.3 µM)
inhibition at 10 µg/mL (VZV strain Ellen; [5]): 0%
IC50 (VZV strain Ellen; [6]): > 10 µg/mL
IC50 ([1]; read-out: IC50 ug/ml HCMV): 5 µg/mL (≈ 13.1 µM)

Reference: patent EP1137645B1, “ALPHA-METHYLBENZYL-CONTAINING THIOUREA INHIBITORS OF HERPES VIRUSES CONTAINING A […] GROUP” (Wyeth, priority 1998, dated 2000)
